Laboratory results as given in patent US11051515B2, “3-acyl-benzamides and their use as herbicides” (Bayer Aktiengesellschaft, priority 2017, dated 2021).

Experiments:
AMARE [1] = assay: Post-emergence action against AMARE; type: in vivo, Amaranthus retroflexus; settings: post-emergence, dosage 80 g/ha, visual assessment about 3 weeks after treatment vs untreated controls; for pest or weed control at 80 g/ha: Amaranthus retroflexus, 504 h, read-out: Post-emergence action against AMARE (herbicidal action in percent)
Procedure: (§1) Seeds of monocotyledonous and dicotyledonous weed and crop plants are laid out in sandy loam soil in wood-fiber pots, covered with soil and cultivated in a greenhouse under good growth conditions. 2 to 3 weeks after sowing, the test plants are treated at the one-leaf stage. The compounds of the invention, formulated in the form of wettable powders (WP) or as emulsion concentrates (EC), are then sprayed onto the green parts of the plants in the form of an aqueous suspension or emulsion at a water application rate equating to […], with addition of 0.2% wetting agent. After the test plants have been left to stand in the greenhouse under optimal growth conditions for about 3 weeks, the action of the preparations is assessed visually in comparison to untreated controls (herbicidal action in percent (%): 100% activity=the plants have died, 0% activity=like control plants). […] At the same time, inventive compounds leave Gramineae crops such as barley, wheat, rye, millet/Sorghum, corn or rice virtually undamaged when applied post-emergence, even at high active ingredient dosages. In addition, some substances are also harmless to dicotyledonous crops such as soya, cotton, oilseed rape, sugar beet or potatoes. Some of the compounds according to the invention have high selectivity and are therefore suitable for controlling unwanted vegetation in agricultural crops by the post-emergence method. The data of Tables B18 to B34 below illustrate, in an exemplary manner, the […] herbicidal action of the compounds according to the invention, the herbicidal activity being stated in percent.

VERPE [2] = assay: Pre-emergence action against VERPE; type: in vivo, Veronica persica; settings: Dosage 320 g/ha, pre-emergence; for pest or weed control at 320 g/ha: Veronica persica, 504 h
Excerpt: (§2) Seeds of monocotyledonous and dicotyledonous weed plants and crop plants are laid out in sandy loam soil in wood-fiber pots and covered with soil. The compounds of the invention, formulated in the form of wettable powders (WP) or as emulsion concentrates (EC), are then applied to the surface of the covering soil in the form of an aqueous suspension or emulsion at a water application rate equating to […], with addition of 0.2% wetting agent. After the treatment, the pots are placed in a greenhouse and kept under good growth conditions for the trial plants. The damage to the test plants is scored visually after a test period of 3 weeks by comparison with untreated controls (herbicidal activity in percent (%): 100% activity=the plants have died, 0% activity=like control plants).

VERPE [3] = assay: Post-emergence action against VERPE; type: in vivo, Veronica persica; settings: dosage 80 g/ha; for pest or weed control at 80 g/ha: Veronica persica, 504 h
Procedure: as §1

ABUTH [4] = assay: Post-emergence action against ABUTH; type: in vivo, Abutilon theophrasti; settings: post-emergence, dosage 80 g/ha, visual assessment about 3 weeks after treatment vs untreated controls
Procedure: as §1

VIOTR [5] = assay: Post-emergence action against VIOTR; type: in vivo, Viola tricolor; settings: post-emergence, dosage 80 g/ha
Procedure: as §1

MATIN [6] = assay: Post-emergence action against MATIN; type: in vivo, Matricaria inodora; settings: post-emergence, dosage 80 g/ha, visual assessment about 3 weeks after treatment vs untreated controls
Procedure: as §1

VIOTR [7] = assay: Pre-emergence action against VIOTR; type: in vivo, Viola tricolor; settings: Dosage 320 g/ha, pre-emergence
Excerpt: as §2

PHBPU = assay: Post-emergence action against PHBPU; type: in vivo, Pharbitis purpurea; settings: post-emergence, dosage 80 g/ha
Procedure: as §1

AMARE [8] = assay: Pre-emergence action against AMARE; type: in vivo, Amaranthus retroflexus; settings: pre-emergence, dosage 320 g/ha, scored visually after 3 weeks vs untreated controls; for pest or weed control at 320 g/ha: Amaranthus retroflexus, 504 h, read-out: Pre-emergence action against AMARE (herbicidal activity)
Excerpt: as §2

STEME [9] = assay: Pre-emergence action against STEME; type: in vivo, Stellaria media; settings: Dosage 320 g/ha, pre-emergence
Excerpt: as §2

STEME [10] = assay: Post-emergence action against STEME; type: in vivo, Stellaria media; settings: post-emergence, dosage 80 g/ha; for pest or weed control at 80 g/ha: Stellaria media, 504 h
Procedure: as §1

MATIN [11] = assay: Pre-emergence action against MATIN; type: in vivo, Matricaria inodora; settings: Dosage 320 g/ha, pre-emergence; for pest or weed control at 320 g/ha: Tripleurospermum inodorum, 504 h
Excerpt: as §2

ABUTH [12] = assay: Pre-emergence action against ABUTH; type: in vivo, Abutilon theophrasti; settings: pre-emergence, dosage 320 g/ha, scored visually after 3 weeks vs untreated controls
Excerpt: as §2

ECHCG [13] = assay: Post-emergence action against ECHCG; type: in vivo, Echinochloa crus-galli; settings: post-emergence, dosage 80 g/ha, visual assessment about 3 weeks after treatment vs untreated controls
Procedure: as §1

ALOMY = assay: Pre-emergence action against ALOMY; type: in vivo, Alopecurus myosuroides; settings: dosage 320 g/ha; pre-emergence; scored visually after 3 weeks vs untreated controls; 100% = plants have died, 0% = like control plants
Excerpt: as §2

ECHCG [14] = assay: Pre-emergence action against ECHCG; type: in vivo, Echinochloa crus-galli; settings: pre-emergence, dosage 320 g/ha, scored visually after 3 weeks vs untreated controls
Excerpt: as §2

AVEFA = assay: Pre-emergence action against AVEFA; type: in vivo, Avena fatua; settings: dosage 320 g/ha, scored visually after 3 weeks vs untreated controls
Excerpt: as §2

SETVI = assay: Pre-emergence action against SETVI; type: in vivo, Setaria viridis; settings: pre-emergence, dosage 320 g/ha, scored visually after 3 weeks vs untreated controls
Excerpt: as §2

| SMILES | Post-emergence action against MATIN (herbicidal action in percent) (MATIN [6]) | Post-emergence action against AMARE (herbicidal action in percent) (AMARE [1]) | Pre-emergence action against VIOTR (VIOTR [7]) | Pre-emergence action against VERPE (VERPE [2]) | Post-emergence action against PHBPU (PHBPU) | Pre-emergence action against AMARE (herbicidal activity) (AMARE [8]) | Pre-emergence action against STEME (STEME [9]) | Post-emergence action against STEME (STEME [10]) | Pre-emergence action against MATIN (MATIN [11]) | Pre-emergence action against ABUTH (herbicidal activity) (ABUTH [12]) | Post-emergence action against ABUTH (herbicidal action in percent) (ABUTH [4]) | other results |
| --- | --- | --- | --- | --- | --- | --- | --- | --- | --- | --- | --- | --- |
| CC(=O)c1c(C(F)(F)F)ccc(C(=O)Nc2nnnn2C)c1C [1-14] |  |  |  |  |  |  |  |  |  |  |  | pest or weed control at 80 g/ha (AMARE [1]): 80%; pest or weed control at 320 g/ha (VERPE [2]): 90%; pest or weed control at 80 g/ha (VERPE [3]): 80%; pest or weed control at 80 g/ha (ABUTH [4]; Abutilon theophrasti, 504 h, read-out: Post-emergence action against ABUTH (herbicidal action in percent)): 90% |
| CCn1nnnc1NC(=O)c1ccc(Cl)c(C(=O)C2CCCC2)c1Cl [2-281] | 80% | 90% | 100% | 90% | 100 | 90% | 90% | 100 | 90% |  |  | Post-emergence action against VIOTR (VIOTR [5]): 90; Post-emergence action against VERPE (VERPE [3]): 80 |
| CCn1nnnc1NC(=O)c1ccc(Cl)c(C(=O)c2cccs2)c1Cl [2-282] |  |  |  |  |  | 80% | 80% |  |  | 100% |  |  |
| CCn1nnnc1NC(=O)c1ccc(C(F)(F)F)c(C(=O)C(F)(F)F)c1Cl [2-162] |  | 90% | 100% |  | 100 | 90% | 100% | 100 |  | 100% |  | Post-emergence action against VIOTR (VIOTR [5]): 100 |
| CCn1nnnc1NC(=O)c1ccc(Cl)c(C(=O)c2ccc(OC)cc2)c1Cl [2-283] |  |  |  |  |  |  | 90% |  |  |  | 80% |  |
| Cn1nnnc1NC(=O)c1ccc(Cl)c(C(=O)c2cccs2)c1Cl [1-282] |  |  |  |  |  |  |  |  |  |  |  | pest or weed control at 80 g/ha (AMARE [1]): 80%; pest or weed control at 320 g/ha (ABUTH [12]; Abutilon theophrasti, 504 h, read-out: Pre-emergence action against ABUTH (herbicidal activity)): 90%; pest or weed control at 320 g/ha (AMARE [8]): 80%; pest or weed control at 80 g/ha (STEME [10]): 80%; pest or weed control at 320 g/ha (MATIN [11]): 80% |
| CCCn1nnnc1NC(=O)c1ccc(C)c(C(=O)CC)c1Cl [3-135] | 80% | 90% |  | 80% | 90 | 90% | 90% | 100 | 90% |  |  | Post-emergence action against ECHCG (herbicidal action in percent) (ECHCG [13]): 80%; Pre-emergence action against ALOMY (herbicidal activity in percent) (ALOMY): 80%; Pre-emergence action against ECHCG (herbicidal activity) (ECHCG [14]): 90% |
| CCCn1nnnc1NC(=O)c1ccc(C(F)(F)F)c(C(=O)c2cc(F)cc(F)c2)c1Cl [3-282] |  | 80% | 90% |  | 90 |  |  |  |  |  | 80% |  |
| Cn1nnnc1NC(=O)c1ccc(Cl)c(C(=O)C2CCCC2)c1Cl [1-281] | 80% | 90% | 100% | 100% | 90 | 90% | 80% | 100 | 90% |  |  | Post-emergence action against VIOTR (VIOTR [5]): 100; Post-emergence action against VERPE (VERPE [3]): 80 |
| CCn1nnnc1NC(=O)c1ccc(C(F)(F)F)c(C(=O)C2CCCCC2)c1SC [2-285] | 80% | 90% | 100% | 90% |  | 100% | 100% | 80 | 90% | 100% | 90% | Pre-emergence action against AVEFA (herbicidal activity) (AVEFA): 80%; Pre-emergence action against ECHCG (herbicidal activity) (ECHCG [14]): 80% |
| CCCn1nnnc1NC(=O)c1ccc(C(F)(F)F)c(C(=O)C(C)C)c1Cl [3-140] | 90% | 80% | 100% | 100% | 90 | 100% | 100% | 90 | 100% | 100% | 100% | Post-emergence action against VIOTR (VIOTR [5]): 100; SETVI (Table B8, pre-emergence herbicidal activity) (SETVI): 90%; Post-emergence action against ECHCG (herbicidal action in percent) (ECHCG [13]): 100%; Pre-emergence action against ALOMY (herbicidal activity in percent) (ALOMY): 90%; Pre-emergence action against ECHCG (herbicidal activity) (ECHCG [14]): 90% |
| CCC(=O)c1c(C)ccc(C(=O)Nc2nnnn2C)c1Cl [1-135] |  |  |  |  |  |  |  |  |  |  |  | pest or weed control at 80 g/ha (VIOTR [5]; Viola tricolor, 504 h): 90%; pest or weed control at 80 g/ha (MATIN [6]; Tripleurospermum inodorum, 504 h, read-out: Post-emergence action against MATIN (herbicidal action in percent)): 90%; pest or weed control at 80 g/ha (AMARE [1]): 90%; pest or weed control at 320 g/ha (VERPE [2]): 90%; pest or weed control at 80 g/ha (VERPE [3]): 80%; pest or weed control at 80 g/ha (ECHCG [13]; Echinochloa crus-galli, 504 h, read-out: Post-emergence action against ECHCG (herbicidal action in percent)): 80%; pest or weed control at 320 g/ha (AMARE [8]): 100%; pest or weed control at 320 g/ha (STEME [9]; Stellaria media, 504 h): 90%; pest or weed control at 80 g/ha (STEME [10]): 100%; pest or weed control at 320 g/ha (ECHCG [14]; Echinochloa crus-galli, 504 h, read-out: Pre-emergence action against ECHCG (herbicidal activity)): 90%; pest or weed control at 320 g/ha (MATIN [11]): 90% |
| CCn1nnnc1NC(=O)c1ccc(C(F)(F)F)c(C(=O)C2CCCC2)c1Cl [2-154] |  | 100% |  |  | 90 |  |  | 90 |  |  | 90% |  |
| CCCn1nnnc1NC(=O)c1ccc(C(F)(F)F)c(C(=O)C2CCCCC2)c1Cl [3-155] |  | 90% |  |  |  | 90% | 100% | 80 |  | 100% | 80% |  |
| COc1ccc(C(=O)c2c(Cl)ccc(C(=O)Nc3nnnn3C)c2Cl)cc1 [1-283] |  |  |  |  |  |  |  | 80 |  | 90% |  |  |
